Laboratory results published in ChEMBL document CHEMBL5528023, “Discovery of a CB2 and 5-HT1A receptor dual agonist for the treatment of depression and anxiety” (Eur J Med Chem, 2024).
In brackets after ≈: the same amount, converted by molar mass. Activity calls are given as the source filed them. No cut-off for these calls is given here.

Legend:
[1] = target: T1, Cannabinoid receptor 1 (Homo sapiens, UniProt P21554); assay: Antagonist activity at human CB1 receptor expressed in CHO cells assessed as inhibition of forskolin-stimulated cAMP formation preincubated with compound for 10 mins followed by forskolin induction and measured after 30 mins by HTRF analysis; format: functional, cell-based
[2] = target: T2, Cannabinoid receptor 2 (Homo sapiens, UniProt P34972); assay: Agonist activity at human CB2 receptor expressed in CHO cells assessed as forskolin-stimulated cAMP formation preincubated with compound for 10 mins followed by forskolin induction and measured after 30 mins by HTRF analysis; format: functional, cell-based
[3] = target: T1, Cannabinoid receptor 1; assay: Antagonist activity at human CB1 receptor expressed in CHO cells assessed as inhibition of forskolin-stimulated cAMP formation by measuring maximum inhibition preincubated with compound for 10 mins followed by forskolin induction and measured after 30 mins by HTRF analysis relative to control; format: functional, cell-based; conditions: filed as antagonist, time 40.0 min
[4] = test system: Mus musculus; assay: Induction of spontaneous locomotor activity in C57BL/6 mouse assessed as distance traveled at 10 mg/kg, ip measured at 1 hr; format: functional, organism-based
[5] = test system: Mus musculus; assay: Antidepressant activity in C57BL/6J mouse at 1 mg/kg, ip administered for 14 days by tail suspension test; format: functional, organism-based; conditions: time 14.0 day
[6] = test system: Mus musculus; assay: Induction of spontaneous locomotor activity in C57BL/6 mouse at 3 mg/kg, ip measured at 15 mins; format: functional, organism-based
[7] = target: T3, 5-hydroxytryptamine receptor 1A (Homo sapiens) (UniProt P08908); assay: Agonist activity at human 5HT1A receptor expressed in HEK293 cells assessed as forskolin-stimulated cAMP formation preincubated with compound for 10 mins followed by forskolin induction and measured after 30 mins by HTRF analysis relative to control; format: functional, cell-based; conditions: filed as agonist, time 40.0 min
T3 sequence (whole entry): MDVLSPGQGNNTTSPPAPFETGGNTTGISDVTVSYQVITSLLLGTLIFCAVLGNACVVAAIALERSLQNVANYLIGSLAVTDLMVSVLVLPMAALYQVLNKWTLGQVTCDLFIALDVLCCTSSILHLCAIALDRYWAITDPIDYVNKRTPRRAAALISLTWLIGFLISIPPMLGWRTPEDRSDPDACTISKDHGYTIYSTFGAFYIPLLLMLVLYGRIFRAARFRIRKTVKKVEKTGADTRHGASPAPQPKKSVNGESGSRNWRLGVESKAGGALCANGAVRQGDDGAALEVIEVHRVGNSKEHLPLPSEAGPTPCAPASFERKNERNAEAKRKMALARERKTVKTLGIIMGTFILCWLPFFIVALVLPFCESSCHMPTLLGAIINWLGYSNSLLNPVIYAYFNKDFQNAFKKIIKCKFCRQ

[8] = target: T4, 5-hydroxytryptamine receptor 1A (Homo sapiens, UniProt P08908); assay: Agonist activity at human 5HT1A receptor expressed in HEK293 cells assessed as forskolin-stimulated cAMP formation preincubated with compound for 10 mins followed by forskolin induction and measured after 30 mins by HTRF analysis; format: functional, cell-based
T4 sequence (P08908 whole entry): T3 sequence (whole entry)

[9] = Cmax in ICR mouse brain at 25 mg/kg, po measured upto 8 hrs by LC-MS/MS analysis; format: ADME, organism-based
[10] = test system: Mus musculus; assay: Induction of spontaneous locomotor activity in C57BL/6 mouse assessed as distance traveled at 1 to 10 mg/kg, ip administered once per day for 15 days and measured after 1 hr; format: functional, organism-based; conditions: dose 1-10 mg/kg, time 361.0 hrs
[11] = Cmax in ICR mouse at 25 mg/kg, po measured upto 8 hrs by LC-MS/MS analysis; format: ADME, organism-based; conditions: in vivo
[12] = test system: Mus musculus; assay: Anxiolytic activity against stress-induced hyperthermia in ICR mouse assessed as reduction in basal core rectal temperature at 1 to 10 mg/kg, ip measured for 60 mins; format: functional, organism-based; conditions: dose 1-10 mg/kg
[13] = AUClast in ICR mouse at 25 mg/kg, po measured upto 8 hrs by LC-MS/MS analysis; format: ADME, organism-based; conditions: in vivo
[14] = target: T2, Cannabinoid receptor 2; assay: Agonist activity at human CB2 receptor expressed in CHO cells assessed as forskolin-stimulated cAMP formation preincubated with compound for 10 mins followed by forskolin induction and measured after 30 mins by HTRF analysis relative to control; format: functional, cell-based; conditions: time 40.0 min
[15] = test system: Mus musculus; assay: Induction of spontaneous locomotor activity in C57BL/6 mouse at 1 mg/kg, ip measured at 1 hr; format: functional, organism-based
[16] = test system: Mus musculus; assay: Antidepressant activity in C57BL/6J mouse assessed as reduction in immobility time at 1 mg/kg, ip administered for 12 days and measured after 15 mins by forced swim test; format: functional, organism-based; conditions: time 17295.0 min
[17] = test system: Mus musculus; assay: Antidepressant activity in C57BL/6J mouse assessed as reduction in immobility time at 1 mg/kg, ip administered for 12 days by forced swim test; format: functional, organism-based; conditions: time 12.0 day
[18] = test system: Mus musculus; assay: Antidepressant activity in C57BL/6J mouse assessed as reduction in immobility time at 3 to 10 mg/kg, ip administered for 12 days by forced swim test; format: functional, organism-based; conditions: dose 3-10 mg/kg, time 12.0 day
[19] = test system: Mus musculus; assay: Antidepressant activity in C57BL/6J mouse assessed as […] at 1 mg/kg, ip administered for 14 days by tail suspension test; format: functional, organism-based; conditions: time 14.0 day
[20] = Tmax in ICR mouse at 25 mg/kg, po measured upto 8 hrs by LC-MS/MS analysis; format: ADME, organism-based; conditions: in vivo
[21] = test system: Mus musculus; assay: Antidepressant activity in C57BL/6J mouse assessed as reduction in immobility time at 3 to 10 mg/kg, ip administered for 12 days and measured after 15 mins by forced swim test; format: functional, organism-based; conditions: dose 3-10 mg/kg, time 17295.0 min
[22] = test system: Mus musculus; assay: Anxiolytic activity against stress-induced hyperthermia in ip dosed ICR mouse assessed as reduction in basal core rectal temperature measured for 60 mins; format: functional, organism-based; conditions: dose 3-10 mg/kg
[23] = test system: Mus musculus; assay: Anxiolytic activity against stress-induced hyperthermia in ip dosed ICR mouse assessed as reduction in delta temperature measured for 60 mins; format: functional, organism-based; conditions: dose 1-10 mg/kg
[24] = Toxicity in C57BL/6J mouse assessed as effect on body weight at 1 to 10 mg/kg, ip measured upto 10 days; format: organism-based; conditions: in vivo, 240 h, dose 1-10 mg/kg, time < 10 day
[25] = Half life in ICR mouse at 25 mg/kg, po measured upto 8 hrs by LC-MS/MS analysis; format: ADME, organism-based; conditions: in vivo
[26] = target: T2, Cannabinoid receptor 2; assay: Agonist activity at CB2 receptor (unknown origin); format: functional
[27] = Solubility of compound in phosphate buffer at pH 6.8 by HPLC analysis; format: physicochemical
[28] = target: T2, Cannabinoid receptor 2; assay: Partial agonist activity at human CB2 receptor expressed in CHO cells assessed as forskolin-stimulated cAMP formation preincubated with compound for 10 mins followed by forskolin induction and measured after 30 mins by HTRF analysis relative to control; format: functional, cell-based; conditions: filed as partial agonist, time 40.0 min
[29] = target: T2, Cannabinoid receptor 2; assay: Partial agonist activity at human CB2 receptor expressed in CHO cells assessed as forskolin-stimulated cAMP formation preincubated with compound for 10 mins followed by forskolin induction and measured after 30 mins by HTRF analysis; format: functional, cell-based

T2 sequence (P34972 whole entry): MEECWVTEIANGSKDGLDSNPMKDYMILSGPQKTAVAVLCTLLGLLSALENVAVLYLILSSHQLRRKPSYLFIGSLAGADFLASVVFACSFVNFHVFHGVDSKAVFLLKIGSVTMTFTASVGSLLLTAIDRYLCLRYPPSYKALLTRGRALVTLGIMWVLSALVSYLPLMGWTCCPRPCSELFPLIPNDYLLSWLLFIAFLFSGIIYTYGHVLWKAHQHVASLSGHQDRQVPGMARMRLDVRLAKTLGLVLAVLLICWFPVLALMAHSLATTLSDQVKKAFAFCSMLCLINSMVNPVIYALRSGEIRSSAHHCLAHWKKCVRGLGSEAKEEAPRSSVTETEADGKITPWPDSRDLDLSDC
T1 sequence (P21554 whole entry): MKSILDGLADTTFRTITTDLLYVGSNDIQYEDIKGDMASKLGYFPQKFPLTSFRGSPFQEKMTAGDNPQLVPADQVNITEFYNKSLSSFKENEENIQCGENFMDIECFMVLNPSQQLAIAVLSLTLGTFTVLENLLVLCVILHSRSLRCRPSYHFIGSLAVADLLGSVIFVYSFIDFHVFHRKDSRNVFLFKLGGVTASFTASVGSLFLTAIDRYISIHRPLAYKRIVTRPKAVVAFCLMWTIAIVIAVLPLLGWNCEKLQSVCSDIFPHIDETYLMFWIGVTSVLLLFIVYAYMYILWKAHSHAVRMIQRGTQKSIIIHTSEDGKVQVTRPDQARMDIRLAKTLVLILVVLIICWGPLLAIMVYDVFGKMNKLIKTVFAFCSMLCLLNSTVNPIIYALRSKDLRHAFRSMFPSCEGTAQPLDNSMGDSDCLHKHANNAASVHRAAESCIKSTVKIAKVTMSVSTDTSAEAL

SMILES	IC50 [1] [nM]	EC50 [2] [nM]	Imax [3] [%]	Cmax [11] [ng/mL]	AUC(0-t) at 8 h [13] [ng·h/mL]	Tmax [20] [h]	half-life [25] [h]	further results
C=C(C)[C@@H]1CCC(C)=C[C@H]1c1c(O)cc(C(C)C)cc1O	18	> 10	94	–	–	–	–	–
C=C(C)[C@@H]1CCC(C)=C[C@H]1c1c(O)cc(C2(CCCC)CC2)c(C(N)=O)c1O	3200	480	93.8	211	545	1.3	2.5	Activity [4]: inactive; Activity [5]: Active; Activity [6]: Active; Emax [7]: 101%; EC50 [8]: 2700 nM; Cmax [9]: 217 ng/g; Activity [10]: Active; Activity [12]: Active; Emax [14]: 34.9%; Activity [15]: Active; Activity [16]: Active; Activity [17]: Active; Activity [18]: Active; Activity [19]: inactive; Activity [21]: Active; Activity [22]: Dose-Dependent Effect; Activity [23]: Dose-Dependent Effect; Activity [24]: Non-Toxic
C=C(C)[C@@H]1CCC(C)=C[C@H]1c1c(O)cc(C2(CCCC)CC2)c(C(=O)NC)c1O	2200	> 10000	91.1	–	–	–	–	–
C=C(C)[C@@H]1CCC(C)=C[C@H]1c1c(O)cc(CCC)cc1O [CANNABIDIVARIN]	5600	> 10	94.9	–	–	–	–	–
CN1C(=O)CN=C(c2ccccc2)c2cc(Cl)ccc21	–	–	–	–	–	–	–	Activity [22]: Dose-Dependent Effect; Activity [23]: Dose-Dependent Effect
C=C(C)[C@@H]1CCC(C)=C[C@H]1c1c(O)cc(C2CC2)cc1O	4400	> 10	94	–	–	–	–	–
Cc1ccc(CC2CN(C(=O)C3C(C)(C)[C@@H]4CC[C@]3(C)C4)N=C2c2ccc(Cl)c(C)c2)cc1 (some centres undefined)	–	–	–	–	–	–	–	EC50 [26]: 190 nM
C=C(C)[C@@H]1CCC(C)=C[C@H]1c1c(O)cc(CCCCC)c(C(=O)N(C)C)c1O	6900	–	88.9	22.2	26.3	0.4	1.7	solubility [27]: 3 µg/mL (≈ 7.78 µM); Emax [28]: 73.6%; EC50 [29]: 1010 nM
C=C(C)[C@@H]1CCC(C)=C[C@H]1c1c(O)cc(CCCCC)c(C(=O)NCCN(C)C)c1O	> 10000	> 10	–	–	–	–	–	–
C=C(C)[C@@H]1CCC(C)=C[C@H]1c1c(O)cc(C2CCCCC2)cc1O	–	–	–	216	616	0.8	2.7	Emax [28]: 62.7%; EC50 [29]: 55.2 nM
C=C(C)[C@@H]1CCC(C)=C[C@H]1c1c(O)cc(C2CCCC2)cc1O	–	–	–	514	1080	1	1.8	Emax [28]: 76.3%; EC50 [29]: 113 nM
C=C(C)[C@@H]1CCC(C)=C[C@H]1c1c(O)cc(CCCCC)c(C(N)=O)c1O	2700	> 10	86.3	–	–	–	–	solubility [27]: 0.6 µg/mL (≈ 1.68 µM)
C=C(C)[C@@H]1CCC(C)=C[C@H]1c1c(O)cc(C2CC2)c(C(=O)NC)c1O	> 10000	> 10000	–	–	–	–	–	–
